Data taken from patent US5932568A, “6-methoxy-1H-benzotriazole-5-carboxamide derivatives and pharmaceutical compositions containing them” (priority 1994, dated 1999).
Structures can show the parent of a compound that is named as a salt.

How the values were obtained:
[1] = system: apomorphine-induced vomiting; experiment: Inhibitory effect on apomorphine-induced vomiting; assay type: in vivo, dogs (Beagle); details: Canis lupus familiaris, po, 1 h, 2 h before s.c. apomorphine hydrochloride 0.3 mg/kg, emetic episodes 1 h; for inhibition in vivo at 1 mg/kg: 1.0 mg/kg oral; for inhibition in vivo at 0.1 mg/kg: 0.1 mg/kg oral
Protocol: A group of 3-4 dogs (Beagle, 8-15 kg) was used for examining inhibitory effects of the test compounds on apomorphine-induced vomiting according to the method of Chen and Ensor [cf. J. Pharmacol. Exp. Ther., 98, 245-250 (1950)]. Test compounds, dissolved or suspended in a 0.5% tragacanth solution were orally administered two hours before the subcutaneous administration of apomorphine hydrochloride (0.3 mg/kg). Then, the emetic episodes were counted for one hour. The emetic episodes of the compound-treated group were compared with those of the corresponding control (non-dosed) group, and the percent inhibition was calculated.

[2] = system: gastric emptying delayed by morphine; experiment: Effect on gastric emptying delayed by morphine; assay type: in vivo, Male Wistar rats; parameters: key to Effect on gastric emptying delayed by morphine: +: slightly to moderately improved; ++: markedly improved; ±: no improvement; details: for Effect on gastric emptying delayed by morphine: morphine 3 mg/kg s.c.
Protocol: (§1) The test was carried out according to the method of Scarpignato et al. [c f. Arch. int. Pharmacodyn., 246, 286-294 (1980)]. Male Wistar rats, weighing 130-150 g, were fasted for 18 hours before experimentation, and 1.5 ml of a test meal (phenol red 0.05% in a 1.5% aqueous methylcellulose solution) was orally given. Fifteen minutes after administration of the meal the stomach was removed and the amount of phenol red remaining in the stomach was measured. The test compounds, 10, 30 or 100 mg/kg, each dissolved or suspended in a 0.5% tragacanth solution, were orally administrated 60 minutes before administration of the test meal. Gastric emptying was delayed by subcutaneous administration of cholesystokinin 3 μg/kg or morphine 3 mg/kg 5 minutes before the administration of phenol red. The number of animals used was 5 to 10.

[3] = system: gastric emptying; experiment: Gastric emptying enhancing activity; assay type: in vivo, Male Wistar rats; details: 60 min before test meal, increase from control
Protocol: The test was carried out according to the method of Scarpignato et al. [cf. Arch. Int. Pharmacodyn., 246, 286-294 (1980)]. Male Wistar rats, weighing 130-150 g, were fasted for 18 hours before experimentation, and 1.5 ml of a test meal (phenol red 0.05% in a 1.5% aqueous methylcellulose solution) was orally given. Fifteen minutes after administration of the meal the stomach was removed and the amount of phenol red remaining in the stomach was measured. The test compounds, dissolved or suspended in a 0.5% tragacanth solution, were orally administered 60 minutes before administration of the test meal. The rate of gastric emptying was calculated according to the amount of phenol red remaining in the stomach, and the activity of the test compounds was expressed in terms of increase in the emptying rate from the control.

[4] = system: gastric emptying delayed by cholecystokinin; experiment: Effect on gastric emptying delayed by cholecystokinin; assay type: in vivo, Male Wistar rats; parameters: key to Effect on gastric emptying delayed by cholecystokinin: +: slightly to moderately improved; ++: markedly improved; ±: no improvement; details: for Effect on gastric emptying delayed by cholecystokinin: cholecystokinin 3 μg/kg s.c.; for Gastric emptying delayed by cholecystokinin (in words): compound 2: 30 or 100 mg/kg, 7b and Compound A: 10, 30 or 100 mg/kg
Protocol: as §1

[5] = system: gastrointestinal motility; experiment: Effect on gastrointestinal motility in conscious dog; assay type: in vivo, beagle dogs; details: 3 and 10 mg/kg intragastric; fed state, conscious dogs
Protocol: Four healthy beagle dogs per group of both sexes weighing 10 to 12 kg were anesthetized with an i.v. injection of pentobarbital sodium (Nembutal, 30 mg/kg b. wt.), and the abdominal cavity was opened under aseptic conditions. Extraluminal force transducers were sutured onto the seromuscular layer of the gastric antrum, 3 cm proximal to the pyloric ring, the duodenum, the jejunum, the […] terminal ileum in a manner to measure circular muscle contraction, following the method of Ito et al., [cf. Gastrointerol. Japan. 12, 275-283 (1977).] For intragastric (i.g.) administration of drugs, a Silastic tube (Fr. size 6.5) was inserted into the lumen of the gastric body, and the tube was fixed onto the adjacent serosa. The lead wires of these transducers and gastric tube were taken out of abdominal cavity and then brought out through a skin incision made between the scapulae. The outer ends of the lead wires were sutured onto the skin adjacent to the skin incision. After the operation, jacket protector was placed on the dog to protect the lead wires and the Silastic tube. The dogs were housed in individual experimental cages and given dog food at 10 a.m., and water was given freely. Test compounds at 3 and 10 mg/kg were suspended in 0.5% tragacanth solution and given i.g. through the indwelling Silastic tube.

[6] = system: exploratory activity; experiment: Inhibitory effect on exploratory activity; assay type: in vivo, male mice (Std-ddy strain); details: Mus musculus; oral, 2 h before test; 3 min counting; Probit; read-out: ID50 (inhibition of exploratory activity)
Description: A group of 5 male mice (Std-ddy strain, 20-25 g) was used. Two hours after oral administration of the test compounds in the form of 0.5% tragacanth solution or suspension, mice were placed individually in a test box (23×35×30 cm) on Animex activity meter (Farad Co.). Immediately thereafter, activity counting was started and lasted for three minutes. The mean counts of the compound-treated group were compared with those of the corresponding control (non-dosed) group, and the percent inhibition was calculated and the 50% inhibitory dose (ID50) was obtained according to the method of Probit.

[7] = system: gastrointestinal motility; experiment: Gastrointestinal motility improving activity (overall statement); details: in vivo
[8] = in vivo; details: mouse, oral, mice, 7 days observation

Compound | inhibition in vivo at 1 mg/kg [1] | ED50 [6] | Increase in gastric emptying rate ([3]; 3 mg/kg oral) | other results
COc1cc2c(cc1C(=O)N[C@@H]1CCCCN(CC3CC3)C1)nnn2C [Compound 13, (R)-N-(1-cyclopropylmethyl-1H-hexahydroazepin-3-yl)-6-methoxy-1-methyl-1H-benzotriazole-5-carboxamide] | 73% |  |  | 
CCN(CC)CCNC(=O)c1cc(Cl)c(N)cc1OC.Cl.O [Compound A, 4-Amino-5-chloro-N-[2-(diethylamino)ethyl]-2-methoxybenzamide hydrochloride monohydrate, reference compound] | 86% | 22.4 mg/kg |  | Effect on gastric emptying delayed by morphine ([2]; 10 mg/kg oral): ±; Effect on gastric emptying delayed by morphine ([2]; 30 mg/kg oral): ±; Effect on gastric emptying delayed by morphine ([2]; 100 mg/kg oral): ±; Gastric emptying delayed by morphine (in words) ([2]; 10, 30 or 100 mg/kg): did not show an improving activity against the delay in gastric emptying induced by cholecystokinin or morphine; Increase in gastric emptying rate ([3]; 2 mg/kg oral): 21%; Increase in gastric emptying rate ([3]; 5 mg/kg oral): 26%; Increase in gastric emptying rate ([3]; 10 mg/kg oral): 31%; Effect on gastric emptying delayed by cholecystokinin ([4]; 10 mg/kg oral): ±; Effect on gastric emptying delayed by cholecystokinin ([4]; 30 mg/kg oral): ±; Effect on gastric emptying delayed by cholecystokinin ([4]; 100 mg/kg oral): ±; Gastric emptying delayed by cholecystokinin (in words) [4]: did not show an improving activity against the delay in gastric emptying induced by cholecystokinin or morphine; inhibition in vivo at 0.5 mg/kg ([1]; 0.5 mg/kg oral): 56%; Interdigestive migrating like-contractions [5]: did not cause interdigestive migrating contractions at all
CCN1CCCCC(NC(=O)c2cc3nnn(C)c3cc2OC)C1 (stereo not shown) [Compound 1, N-(1-ethyl-1H-hexahydroazepin-3-yl)-6-methoxy-1-methyl-1H-benzotriazole-5-carboxamide] | 77% | > 100 mg/kg |  | 
CCN1CCCCCC(NC(=O)c2cc3nnn(C)c3cc2OC)C1 (stereo not shown) [Compound 14, N-(1-ethyl-1H-heptahydroazocin-3-yl)-6-methoxy-1-methyl-1H-benzotriazole-5-carboxamide] | 100% |  | 32% | 
CCN1CCCC[C@@H](NC(=O)c2cc3nnn(CC)c3cc2OC)C1 [Compound 5, (R)-1-ethyl-N-(1-ethyl-1H-hexahydroazepin-3-yl)-6-methoxy-1H-benzotriazole-5-carboxamide] | 100% |  | 35% | 
COc1cc2[nH]nnc2cc1C(=O)NC1CCCCN(CC2CC2)C1 (stereo not shown) [Compound 11, N-(1-cyclopropylmethyl-1H-hexahydroazepin-3-yl)-6-methoxy-1H-benzotriazole-5-carboxamide] | 92% |  | 34% | 
CCN1CCCCC(NC(=O)c2cc3nnn(CC)c3cc2OC)C1 (stereo not shown) [Compound 4, 1-ethyl-N-(1-ethyl-1H-hexahydroazepin-3-yl)-6-methoxy-1H-benzotriazole-5-carboxamide] | 89% | > 100 mg/kg | 31% | 
CCN1CCCCCC(NC(=O)c2cc3nn[nH]c3cc2OC)C1 (stereo not shown) [Compound 9, N-(1-ethyl-1H-heptahydroazocin-3-yl)-6-methoxy-1H-benzotriazole-5-carboxamide] | 100% |  |  | 
CCN1CCCC[C@H](NC(=O)c2cc3nnn(C)c3cc2OC)C1 [Compound 3, (S)-N-(1-ethyl-1H-hexahydroazepin-3-yl)-6-methoxy-1-methyl-1H-benzotriazole-5-carboxamide] | 36% |  |  | 
CCN1CCCC[C@H](NC(=O)c2cc3nn[nH]c3cc2OC)C1 [Compound 8b, (S)-N-(1-ethyl-1H-hexahydroazepin-3-yl)-6-methoxy-1H-benzotriazole-5-carboxamide.3/2 fumarate] | 19% |  |  | 
CCN1CCCC[C@@H](NC(=O)c2cc3nn[nH]c3cc2OC)C1 [Compound 7a, (R)-N-(1-ethyl-1H-hexahydroazepin-3-yl)-6-methoxy-1H-benzotriazole-5-carboxamide] | 100% | > 100 mg/kg |  | inhibition in vivo at 0.1 mg/kg [1]: 73%; Gastrointestinal motility improving activity (in words) [7]: especially excellent gastrointestinal motility improving activity
CCN1CCCCCCC(NC(=O)c2cc3nnn(C)c3cc2OC)C1 (stereo not shown) [Compound 15, N-(1-ethyl-1H-octahydroazonin-3-yl)-6-methoxy-1-methyl-1H-benzotriazole-5-carboxamide] | 71% |  |  | 
COc1cc2[nH]nnc2cc1C(=O)N[C@@H]1CCCCN(CC2CC2)C1 [Compound 12, (R)-N-(1-cyclopropylmethyl-1H-hexahydroazepin-3-yl)-6-methoxy-1H-benzotriazole-5-carboxamide] | 92% |  |  | 
CCN1CCCCC(NC(=O)c2cc3nn[nH]c3cc2OC)C1 (stereo not shown) [Compound 6, N-(1-ethyl-1H-hexahydroazepin-3-yl)-6-methoxy-1H-benzotriazole-5-carboxamide] | 100% | > 100 mg/kg | 28% | inhibition in vivo at 0.3 mg/kg ([1]; 0.3 mg/kg oral): 71%
CCN1CCCC[C@@H](NC(=O)c2cc3nnn(C)c3cc2OC)C1 [Compound 2, (R)-N-(1-ethyl-1H-hexahydroazepin-3-yl)-6-methoxy-1-methyl-1H-benzotriazole-5-carboxamide] | 100% | > 100 mg/kg | 41% | LD50 at 168 h [8]: 688 mg/kg; Effect on gastric emptying delayed by cholecystokinin ([4]; 30 mg/kg oral): +; Effect on gastric emptying delayed by cholecystokinin ([4]; 100 mg/kg oral): ++; Gastric emptying delayed by cholecystokinin (in words) [4]: significantly improved gastric emptying delayed by cholecystokinin; inhibition in vivo at 0.1 mg/kg [1]: 80%; Interdigestive migrating like-contractions [5]: caused interdigestive migrating like-contractions in fed state in conscious dogs; Gastrointestinal motility improving activity (in words) [7]: especially excellent gastrointestinal motility improving activity
CCN1CCCCCCC(NC(=O)c2cc3nn[nH]c3cc2OC)C1 (stereo not shown) [Compound 10, N-(1-ethyl-1H-octahydroazonin-3-yl)-6-methoxy-1H-benzotriazole-5-carboxamide] | 100% |  | 46% | 
